What was measured:
Cox-1 = biological target: T1, Cox-1 (Rattus norvegicus, UniProt Q63921); assay: COXs inhibition, rat whole blood Cox-1; type: cell-based; conditions: read-out: ratWB Cox-1 IC50
T1 construct: from tissue; host or cells: rat whole blood ('ratWB')
T1 sequence (Q63921 27-602): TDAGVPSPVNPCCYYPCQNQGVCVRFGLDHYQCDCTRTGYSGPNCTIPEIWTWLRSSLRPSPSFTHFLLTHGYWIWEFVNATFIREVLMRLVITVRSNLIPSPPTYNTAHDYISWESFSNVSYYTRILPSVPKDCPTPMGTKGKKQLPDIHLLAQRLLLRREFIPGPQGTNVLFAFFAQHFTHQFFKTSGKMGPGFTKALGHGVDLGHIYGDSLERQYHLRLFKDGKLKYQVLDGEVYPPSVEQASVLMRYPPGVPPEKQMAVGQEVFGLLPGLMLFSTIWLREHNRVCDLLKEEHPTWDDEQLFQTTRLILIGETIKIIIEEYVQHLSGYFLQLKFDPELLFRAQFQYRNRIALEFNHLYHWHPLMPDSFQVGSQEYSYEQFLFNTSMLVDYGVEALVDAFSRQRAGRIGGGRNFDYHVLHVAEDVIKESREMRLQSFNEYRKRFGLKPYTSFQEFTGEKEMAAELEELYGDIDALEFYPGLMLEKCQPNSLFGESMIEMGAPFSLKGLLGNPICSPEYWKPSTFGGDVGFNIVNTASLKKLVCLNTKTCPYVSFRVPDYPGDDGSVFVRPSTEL
Method: Methods for Testing Compounds on Inhibiting COXs
Activities of inhibiting COXs can be investigated by the manner described in Proc. Natl. Acad. Sci. USA 96, 7563, […].
As a result, compounds of the present invention are less or no potent COXs inhibitors. A result of COXs inhibition of the selected compounds (Example Nos. 1, 3, 12, 188, 474, 497, 507, 513, 527, 533, 562, and 638) are: ratWB Cox-1 IC50>30 μM and ratWB IC50>30 μM.

human BKαβ1 channels = biological target: T2, human BKαβ1 channels (Homo sapiens, UniProt Q12791); assay: BK current in CHO cells expressing human BKαβ1 (PatchXpress whole-cell patch clamp), EC100; type: cell-based; conditions: drug concentration causing 100% increase of BK current
T2 construct: expressed in transfected cells; host or cells: CHO cells (G418 and hygromycin selection)
T2 sequence (Q12791 whole entry): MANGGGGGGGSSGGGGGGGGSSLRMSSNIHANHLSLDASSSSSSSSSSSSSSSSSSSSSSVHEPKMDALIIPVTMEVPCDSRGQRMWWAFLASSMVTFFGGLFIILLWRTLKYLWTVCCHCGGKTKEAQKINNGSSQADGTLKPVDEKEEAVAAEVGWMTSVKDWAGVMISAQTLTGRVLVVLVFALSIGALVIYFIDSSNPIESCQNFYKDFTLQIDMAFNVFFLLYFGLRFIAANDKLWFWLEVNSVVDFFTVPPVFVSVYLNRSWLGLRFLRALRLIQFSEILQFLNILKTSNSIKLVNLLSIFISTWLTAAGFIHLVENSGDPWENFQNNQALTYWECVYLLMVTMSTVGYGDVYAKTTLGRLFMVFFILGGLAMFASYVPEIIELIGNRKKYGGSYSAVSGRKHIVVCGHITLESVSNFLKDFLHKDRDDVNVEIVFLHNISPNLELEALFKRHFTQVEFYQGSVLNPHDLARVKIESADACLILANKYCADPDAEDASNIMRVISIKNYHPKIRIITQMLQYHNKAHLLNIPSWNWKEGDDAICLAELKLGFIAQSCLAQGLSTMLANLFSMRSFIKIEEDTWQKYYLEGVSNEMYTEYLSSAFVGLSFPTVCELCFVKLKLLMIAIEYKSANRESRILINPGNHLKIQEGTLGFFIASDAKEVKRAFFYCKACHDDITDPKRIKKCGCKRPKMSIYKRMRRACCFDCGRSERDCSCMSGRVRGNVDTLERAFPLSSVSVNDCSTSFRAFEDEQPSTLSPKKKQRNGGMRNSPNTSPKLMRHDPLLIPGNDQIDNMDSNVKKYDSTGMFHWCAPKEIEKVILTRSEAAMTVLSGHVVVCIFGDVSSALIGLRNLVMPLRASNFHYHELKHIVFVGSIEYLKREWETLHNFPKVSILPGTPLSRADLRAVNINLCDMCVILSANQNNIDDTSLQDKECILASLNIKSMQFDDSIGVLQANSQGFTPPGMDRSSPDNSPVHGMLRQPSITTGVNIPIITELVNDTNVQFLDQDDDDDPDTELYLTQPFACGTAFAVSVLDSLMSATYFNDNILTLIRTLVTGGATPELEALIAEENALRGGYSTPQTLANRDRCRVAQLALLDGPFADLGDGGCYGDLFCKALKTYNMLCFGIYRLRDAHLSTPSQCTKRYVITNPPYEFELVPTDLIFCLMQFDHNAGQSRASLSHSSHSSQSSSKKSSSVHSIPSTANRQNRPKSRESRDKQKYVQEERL
T2 sequence (Q16558 whole entry partner): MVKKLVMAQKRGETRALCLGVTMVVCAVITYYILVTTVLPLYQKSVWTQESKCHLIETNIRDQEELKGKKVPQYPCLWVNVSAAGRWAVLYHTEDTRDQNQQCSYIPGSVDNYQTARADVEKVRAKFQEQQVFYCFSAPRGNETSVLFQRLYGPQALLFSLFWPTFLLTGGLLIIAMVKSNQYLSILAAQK
Method: Methods for Testing Compounds on Human BKαβ1 Channels Expressed Cho Cells
CHO cells expressing human BKαβ1 were cultured in T75 or 6 well cell culture cluster. Medium: DMEM/F12+10% FBS+0.5 mg/mL G418/genetecin+0.1 mg/mL Hygromycin. Split cells every 3-4 days at 80-90% confluence. Use cells for experiments 60-72 hrs after re-passage and at ˜90% confluence.
Trypsin solution (0.05% Trypsin+0.1% EDTA), Ca^2+ free PBS and culture medium were warmed to 37° C. Inspect the T75 flask for cell confluence. Remove culture medium and add warm Ca^2+ free PBS to wash cells. Remove Ca^2+ free PBS and add warm Trypsin solution. Put the T75 flask back to 37° C. incubator for about 4.5 minutes. Stop Trypsin activity by adding culture medium. Spin the cells down. Suspend cells in 120-160 μL external solution for BK current recording and use the cells as soon as possible.
PatchXpress Sealchip 16 electrodes (AVIVA Biosciences) and PatchXpress 7000A (Axon Instruments, Inc) were used for BK current recording. Flat bottom 1.5 mL glass vial (HiPep Laboratories) were used for containing external solutions (±compounds). The holes in the sealchip (equivalent to patch electrode) had resistance about 1.5 MΩ. Cell membrane capacitance was compensated and access resistance was also compensated by 40%. Voltage-clamp protocol: Holding voltage=0 mV. Record BK current during 200-ms steps between +80 to +120 mV in 10 mV increments and 2 sec inter-pulse interval. On-line digital leak subtraction was performed by a P/−4 procedure. After whole-cell configuration was established, 2 minute was used to optimize access resistance. Then the chamber was washed with control bath solution for 1 minute to remove excessive cells. Control bath solution was added with robotic pipette and control BK current was recorded after 1 minute equilibrium time. For each drug concentration, 45 μL drug solution was added three times with “suction before adding” mode which left old solution. For each drug addition, 1 minute equilibrium time was given. BK current was measured at each drug concentrations (usually within 3.5 minutes after first drug addition). Calculate % change of BK current at the voltage step when the control BK current first exceeding 200 pA. If the control BK current was less than 200 pA at 120 mV, the cell was not used. % changes were calculated as 100*(Id−Ic)/Ic, where Id was the current amplitude in the presence of drug and Ic was the control current amplitude.
EC100 was defined as the drug concentration causing 100% increase of BK current calculated by the method described above. EC100 was determined by the data points just below and above 100%. % Increase of BK current was plotted against log [drug concentration]. A straight line connected two data points flanking 100%. From this straight line, the concentration corresponding to 100% increase of BK current was determined as EC100.
Compounds were dissolved in DMSO to make 10 mM stock solutions. Subsequent dilutions were made with external solution. The testing drug concentrations were 0.1, 0.3, 1, 3 and 10 μM depending on the potency of compounds. The highest DMSO concentration was 0.1%. External solution (in mM): 140 NaCl, 4 KCl, 1 MgCl2, 2 CaCl2, 10 Glucose, 10 HEPES; pH=7.4 with NaOH. Internal solution (in mM): 140 KCl, 5 EGTA, 1 MgCl2, 5 MgATP, 0.2 CaCl2, 5 HEPES; pH=7.2 with KOH.

[1] = tested on: rhythmic bladder contractions; assay: Inhibitory effect on the rhythmic bladder contractions in anesthetized rats; type: in vivo, rat; conditions: 10 mg/kg
Text: Inhibitory Effect on the Rhythmic Bladder Contractions in Anesthetized Rats
Female Sprague-Dawley rats (9 to 12 weeks old weighing between 200 to 300 g) were anethethized with urethane (subcutaneously administered with a dose of 1.2 g/kg). Both ureters were cannulated to excrete urine. A cannula was inserted into the bladder via the urethra and secured with a ligature around the urethral opening and connected to a three-way stopcock. The ends were connected to a pressure transducer for measurement of bladder pressure and to a infusion pump for intravesical infusion of saline. A cannula was inserted in the femoral vein for intravenous (i.v.) drug administration. Following a over 20 minute post-surgical stabilization period and emptying of urine in the bladder, saline was infused into the bladder (50 μl/min) to evoke the micturition reflex. After the rhythmic bladder contractions had occurred, the saline infusion rate into the bladder was changed to 5 μl/min in order to maintain these contractions. Compounds were administered after stable rhythmic bladder contraction was obtained over 15 minutes. All compounds were dissolved in saline containing 10% dimethyl acetamide for intravenous administration (1 ml/kg). When iberiotoxin, a large conductance calcium-activated K channel blocker (0.15 mg/kg, i.v.) was administered for comparison purposes, it was administered 5 minutes before drug administration.
The frequencies (contractions per minute) of rhythmic bladder contractions were calculated for 10 minutes before and after drug administration. The efficacy of compounds expressed as percent of inhibition in frequency, which calculated from the following formula: (1−frequency after dosing/frequency before dosing)×100(%)

| Compound | IC50 (Cox-1) | EC100 (human BKαβ1 channels) | percent of inhibition in frequency of rhythmic bladder contractions ([1]; anesthetized female Sprague-Dawley rats, i.v., 10 minutes before vs after dosing) | percent of inhibition in frequency of rhythmic bladder contractions ([1]; anesthetized rats, intravenous) |
| --- | --- | --- | --- | --- |
| CC(C)(Oc1cc(N2CCCCC2)nc(-c2ccc(Cl)c(F)c2)n1)C(=O)O [Example 1] | > 30 µM | – | – | – |
| O=C(O)COc1cc(N2CCc3ccccc32)nc(-c2ccc(Cl)c(F)c2)n1 [Example 3] | > 30 µM | – | – | – |
| COC[C@@H]1CCCN1c1cc(OC2(C(=O)[O-])CC2)nc(-c2cc(Cl)c(Cl)s2)n1.[Na+] [Example 5] | – | 0.78 µM | 78% | – |
| COC[C@@H]1CCCN1c1cc(OC(C)(C)C(=O)[O-])nc(-c2ccc(Cl)c(F)c2)n1.[Na+] [Example 12] | – | 1.39 µM | – | A (A: inhibition(%) > 50) |
| CC(C)(Oc1cc(N2CCC[C@H]2CF)nc(-c2ccc(Cl)c(F)c2)n1)C(=O)[O-].[Na+] [Example 22] | – | – | – | A (A: inhibition(%) > 50) |
| CCC(CC)(Oc1cc(N2CCC[C@H]2COC)nc(-c2ccc(Cl)c(F)c2)n1)C(=O)[O-].[Na+] [Example 31] | – | 0.14 µM | – | B (B: 50 > inhibition(%) > 30) |
| CC(C)OC1CCN(c2cc(OC3(C(=O)[O-])CC3)nc(-c3ccc(Cl)c(F)c3)n2)CC1.[Na+] [Example 52] | – | – | – | A (A: inhibition(%) > 50) |
| O=C([O-])C1(Oc2cc(N3CCC(CCO)CC3)nc(-c3ccc(Cl)c(F)c3)n2)CCCC1.[Na+] [Example 59] | – | 0.51 µM | – | B (B: 50 > inhibition(%) > 30) |
| O=C(O)COc1cc(-c2ccc(Cl)c(F)c2)nc(-c2ccc(F)cc2)n1 [Example 188] | > 30 µM | – | – | – |
| CC(C)(Oc1cc(-c2cccc3cccnc23)nc(-c2ccc(Cl)c(F)c2)n1)C(=O)[O-].[Na+] [Example 497] | – | 0.31 µM | – | B (B: 50 > inhibition(%) > 30) |
| COCc1ccc(-c2cc(OC3(C(=O)[O-])CC3)nc(-c3ccc(Cl)c(F)c3)n2)cc1.[Na+] [Example 527] | – | 0.37 µM | – | A (A: inhibition(%) > 50) |
| COc1ccc(-c2cc(OC3(C(=O)[O-])CC3)nc(-c3ccc(Cl)c(F)c3)n2)cn1.[Na+] [Example 534] | – | 0.36 µM | – | B (B: 50 > inhibition(%) > 30) |
| COc1ccccc1-c1cc(OC2(C(=O)[O-])CCCC2)nc(-c2ccc(Cl)c(F)c2)n1.[Na+] [Example 565] | – | 0.28 µM | – | B (B: 50 > inhibition(%) > 30) |
| COc1ccc(-c2cc(OC3(C(=O)[O-])CCCC3)nc(-c3ccc(Cl)c(F)c3)n2)cn1.[Na+] [Example 567] | – | – | – | B (B: 50 > inhibition(%) > 30) |
| COCCOc1cc(F)ccc1-c1cc(OC2(C(=O)[O-])CC2)nc(-c2ccc(F)c(F)c2)n1.[Na+] [Example 619] | – | 0.49 µM | – | B (B: 50 > inhibition(%) > 30) |
| CCCOC1CCN(c2cc(OC3(C(=O)[O-])CC3)nc(-c3ccc(C(F)(F)F)cc3)n2)CC1.[Na+] [Example 693] | – | – | – | A (A: inhibition(%) > 50) |
| CCOc1cc(-c2nc(-c3ccc(F)cc3)nc(OC3(C(=O)[O-])CC3)c2C)ccc1F.[Na+] [Example 977] | – | 0.13 µM | – | B (B: 50 > inhibition(%) > 30) |
| Cc1ccc(Cl)cc1-c1nc(OC2(C(=O)[O-])CC2)nc(-c2ccc(Cl)cc2)n1.[Na+] [Example 1091] | – | 0.03 µM | – | B (B: 50 > inhibition(%) > 30) |
| O=C([O-])C1(Oc2cc(N3CCc4cc(F)ccc4C3)nc(-c3ccc(F)cc3)n2)CC1.[Na+] [Example 1110] | – | 0.3 µM | – | B (B: 50 > inhibition(%) > 30) |
| COCC1CCN(c2nc(OC3(C(=O)O)CC3)cc(-c3cc(Cl)c(Cl)s3)n2)CC1 [Example 1217] | – | 0.19 µM | – | – |
| COCCC1CCN(c2nc(OC3(C(=O)O)CC3)cc(-c3cc(Cl)c(Cl)s3)n2)CC1 [Example 1218] | – | 0.15 µM | – | – |
| CCO[C@H]1CCCN(c2nc(OC3(C(=O)[O-])CC3)cc(-c3cc(Cl)c(Cl)s3)n2)C1.[Na+] [Example 1227] | – | 0.37 µM | – | B (B: 50 > inhibition(%) > 30) |
| O=C(O)C1(Oc2cc(OCc3ccc(F)cc3)nc(-c3ccc(Cl)cc3)n2)CC1 [Example 1281] | – | 0.12 µM | – | – |
| O=C(O)C1(Oc2cc(-c3ccc(Cl)cc3)nc(OCc3ccc(F)c(F)c3)n2)CC1 [Example 1286] | – | 1.2 µM | – | – |

Reference: patent US8575338B2, “Pyrimidine, pyridine and triazine derivatives as maxi-K channel openers” (Mitsubishi Tanabe Pharma Corporation, priority 2008, dated 2013)
